# In ChEMBL document CHEMBL4038335, “Neuroactive Steroids. 2. 3α-Hydroxy-3β-methyl-21-(4-cyano-1H-pyrazol-1'-yl)-19-nor-5β-pregnan-20-one (SAGE-217): A Clinical Next Generation Neuroactive Steroid Positive Allosteric Modulator of the (γ-Aminobutyric Acid)A Receptor” (J Med Chem, 2017):
# What was measured:
# [1] = biological target: GABA-A receptor; alpha-1/beta-2/gamma-2 (Homo sapiens) (UniProt P14867+P47870+P18507); assay: (§1) Positive allosteric modulation of GABAA receptor alpha1beta2gamma2 (unknown origin) expressed in mouse LTK cells assessed as potentiation of GABA-mediated increase in channel current under holding potential at -80 mV at 0.01 to 10 uM preincubated for 30 secs followed by GABA stimulation for 2 secs by automated patch clamp assay relative to GABA; format: cell-based
# [2] = biological target: T1, GABA-A receptor; alpha-1/beta-2/gamma-2 (Homo sapiens, UniProt P14867+P18507+P47870); assay: as §1, with “mV” for “mV at 0.01 to 10 uM”, “assay” for “assay relative to GABA”; format: cell-based
# T1 sequence (P14867 whole entry): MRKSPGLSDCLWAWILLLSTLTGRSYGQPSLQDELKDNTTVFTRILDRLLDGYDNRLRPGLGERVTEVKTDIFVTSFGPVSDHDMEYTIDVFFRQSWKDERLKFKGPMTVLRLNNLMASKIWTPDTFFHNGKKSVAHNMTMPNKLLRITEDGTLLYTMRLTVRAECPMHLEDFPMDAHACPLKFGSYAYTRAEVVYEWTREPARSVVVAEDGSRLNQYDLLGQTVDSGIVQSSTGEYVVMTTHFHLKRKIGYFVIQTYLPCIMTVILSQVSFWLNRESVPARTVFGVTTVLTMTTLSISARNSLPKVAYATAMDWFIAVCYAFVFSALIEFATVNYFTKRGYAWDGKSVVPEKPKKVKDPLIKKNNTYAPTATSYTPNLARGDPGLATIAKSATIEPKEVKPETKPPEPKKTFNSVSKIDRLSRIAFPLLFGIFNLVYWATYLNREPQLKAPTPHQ
# T1 sequence (P47870 whole entry): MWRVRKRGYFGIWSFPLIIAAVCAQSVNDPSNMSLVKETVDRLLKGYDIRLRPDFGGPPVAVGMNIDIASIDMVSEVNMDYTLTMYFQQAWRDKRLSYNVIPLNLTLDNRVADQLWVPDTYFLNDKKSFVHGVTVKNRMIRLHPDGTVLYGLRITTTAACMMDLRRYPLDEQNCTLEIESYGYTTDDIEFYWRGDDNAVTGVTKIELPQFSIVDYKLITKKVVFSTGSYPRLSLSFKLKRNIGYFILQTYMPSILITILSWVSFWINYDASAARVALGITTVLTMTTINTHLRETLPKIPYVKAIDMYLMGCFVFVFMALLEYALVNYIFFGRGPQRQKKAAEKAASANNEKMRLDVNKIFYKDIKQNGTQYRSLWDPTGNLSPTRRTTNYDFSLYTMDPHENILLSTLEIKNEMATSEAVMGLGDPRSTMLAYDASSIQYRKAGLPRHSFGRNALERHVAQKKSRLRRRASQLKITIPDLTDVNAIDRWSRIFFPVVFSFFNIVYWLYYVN
# T1 sequence (P18507 whole entry): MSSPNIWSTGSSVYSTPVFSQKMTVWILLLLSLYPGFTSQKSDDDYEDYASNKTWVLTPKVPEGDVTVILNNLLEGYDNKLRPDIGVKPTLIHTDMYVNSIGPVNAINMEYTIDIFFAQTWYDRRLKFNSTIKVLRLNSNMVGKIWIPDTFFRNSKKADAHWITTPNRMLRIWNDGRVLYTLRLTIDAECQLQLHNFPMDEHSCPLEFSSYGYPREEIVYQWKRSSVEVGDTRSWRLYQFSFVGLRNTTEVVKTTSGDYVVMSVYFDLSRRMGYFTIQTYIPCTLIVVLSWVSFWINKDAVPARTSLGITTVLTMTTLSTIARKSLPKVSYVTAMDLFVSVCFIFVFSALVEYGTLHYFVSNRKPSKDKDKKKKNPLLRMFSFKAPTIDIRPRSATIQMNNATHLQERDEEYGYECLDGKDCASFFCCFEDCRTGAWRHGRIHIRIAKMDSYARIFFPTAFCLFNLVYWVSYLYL
# [3] = biological target: Gamma-aminobutyric acid receptor subunit alpha-4/beta3/delta (Homo sapiens, UniProt O14764+P28472+P48169); assay: as §1, with “alpha4beta3delta” for “alpha1beta2gamma2”, “CHO” for “mouse LTK”, “mV” for “mV at 0.01 to 10 uM”, “manual” for “automated”, “assay” for “assay relative to GABA”; format: cell-based
# [4] = Displacement of [35S]TBPS from GABA-A receptor in Sprague-Dawley rat cerebral cortex cell membranes after 90 mins in presence of GABA by liquid scintillation counting
# [5] = Clearance in mouse hepatic microsomes at 10 uM preincubated for 5 mins followed by NADPH addition measured over 60 mins by HPLC-MS/MS analysis; format: ADME, Microsome; conditions: liver microsomes
# [6] = Oral bioavailability in CD1 mouse at 20 mg/kg measured up to 8 hrs post dose by LC/MS-MS analysis; format: ADME, organism-based; conditions: in vivo
# [7] = Clearance in human hepatic microsomes at 10 uM preincubated for 5 mins followed by NADPH addition measured over 60 mins by HPLC-MS/MS analysis; format: ADME, Microsome; conditions: liver microsomes
# [8] = Oral bioavailability in Sprague-Dawley rat at 20 mg/kg measured up to 8 hrs post dose by LC/MS-MS analysis; format: ADME, organism-based; conditions: in vivo
# [9] = Ratio of drug level in Sprague-Dawley rat brain to plasma at 5 mg/kg, iv measured at 30 mins post dose by LC/MS-MS analysis; format: ADME, organism-based; conditions: read-out: BPR
# [10] = biological target: GABA-A receptor alpha-4/beta-3/delta (Homo sapiens, UniProt P28472+P48169+); assay: as §1, with “alpha4beta3delta” for “alpha1beta2gamma2”, “CHO” for “mouse LTK”, “manual” for “automated”; format: cell-based; conditions: 2 s
# [11] = Clearance in CD1 mouse at 5 mg/kg, iv or 20 mg/kg, po measured up to 8 hrs post dose by LC/MS-MS analysis; format: ADME, organism-based; conditions: in vivo
# [12] = Thermodynamic aqueous solubility of compound at 10 uM sonicated for 1 min followed by incubation for 1 hr by HPLC-MS/MS; format: physicochemical; conditions: buffer; read-out: Therm_solubility
# [13] = Lipophilicity, logD of compound at 20 uM at pH 7.4 by HPLC/MS-MS analysis; format: physicochemical; conditions: buffer
# [14] = Clearance in Sprague-Dawley rat at 5 mg/kg, iv or 20 mg/kg, po measured up to 8 hrs post dose by LC/MS-MS analysis; format: ADME, organism-based; conditions: in vivo
# [15] = Clearance in rat hepatic microsomes at 10 uM preincubated for 5 mins followed by NADPH addition measured over 60 mins by HPLC-MS/MS analysis; format: ADME, Microsome; conditions: liver microsomes
# [16] = Ratio of drug level in CD1 mouse brain to plasma at 5 mg/kg, iv measured at 30 mins post dose by LC/MS-MS analysis; format: ADME, organism-based; conditions: read-out: BPR
# Gamma-aminobutyric acid receptor subunit alpha-4/beta3/delta, sequence (P28472 whole entry): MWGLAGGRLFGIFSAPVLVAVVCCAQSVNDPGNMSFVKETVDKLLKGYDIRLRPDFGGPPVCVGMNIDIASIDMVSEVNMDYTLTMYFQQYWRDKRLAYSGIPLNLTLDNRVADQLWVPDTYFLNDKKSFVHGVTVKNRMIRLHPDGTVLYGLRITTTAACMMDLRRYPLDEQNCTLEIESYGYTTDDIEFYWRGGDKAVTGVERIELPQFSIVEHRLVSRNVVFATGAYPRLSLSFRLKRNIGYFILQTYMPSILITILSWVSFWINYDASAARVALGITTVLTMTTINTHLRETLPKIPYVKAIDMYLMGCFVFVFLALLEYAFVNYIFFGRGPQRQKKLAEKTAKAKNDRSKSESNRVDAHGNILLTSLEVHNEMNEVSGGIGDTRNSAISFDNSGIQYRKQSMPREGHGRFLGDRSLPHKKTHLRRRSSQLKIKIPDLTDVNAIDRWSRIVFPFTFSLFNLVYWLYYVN
# Gamma-aminobutyric acid receptor subunit alpha-4/beta3/delta, sequence (P48169 whole entry): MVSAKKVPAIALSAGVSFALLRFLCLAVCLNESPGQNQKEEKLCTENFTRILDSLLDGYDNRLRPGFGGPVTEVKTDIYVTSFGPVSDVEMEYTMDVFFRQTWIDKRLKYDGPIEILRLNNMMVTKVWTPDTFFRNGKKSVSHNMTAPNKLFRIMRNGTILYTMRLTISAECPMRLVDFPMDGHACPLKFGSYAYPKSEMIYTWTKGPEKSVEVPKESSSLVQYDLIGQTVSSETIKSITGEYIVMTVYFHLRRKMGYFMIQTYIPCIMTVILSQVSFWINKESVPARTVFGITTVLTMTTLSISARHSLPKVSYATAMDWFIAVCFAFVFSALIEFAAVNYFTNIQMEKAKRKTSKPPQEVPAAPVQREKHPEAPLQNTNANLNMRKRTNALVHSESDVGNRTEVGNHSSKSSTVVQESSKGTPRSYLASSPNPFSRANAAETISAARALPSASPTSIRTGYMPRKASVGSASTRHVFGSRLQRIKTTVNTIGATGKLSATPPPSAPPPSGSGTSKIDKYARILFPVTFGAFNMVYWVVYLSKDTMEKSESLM
# Gamma-aminobutyric acid receptor subunit alpha-4/beta3/delta, sequence (O14764 whole entry): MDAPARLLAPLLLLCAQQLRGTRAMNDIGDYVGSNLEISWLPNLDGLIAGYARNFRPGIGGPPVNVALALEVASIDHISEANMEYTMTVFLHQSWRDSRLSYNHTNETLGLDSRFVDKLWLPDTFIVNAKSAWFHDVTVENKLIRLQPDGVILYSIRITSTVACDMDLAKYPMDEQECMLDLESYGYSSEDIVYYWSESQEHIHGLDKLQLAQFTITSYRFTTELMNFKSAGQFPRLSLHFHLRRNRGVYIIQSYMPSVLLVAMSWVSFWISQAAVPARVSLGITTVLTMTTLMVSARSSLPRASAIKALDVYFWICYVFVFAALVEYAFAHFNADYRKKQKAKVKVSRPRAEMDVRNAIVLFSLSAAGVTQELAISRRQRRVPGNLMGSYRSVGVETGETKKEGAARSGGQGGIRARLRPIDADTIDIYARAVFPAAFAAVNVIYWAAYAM
# GABA-A receptor alpha-4/beta-3/delta, sequence (P28472 whole entry): as the sequence (P28472 whole entry) above
# GABA-A receptor alpha-4/beta-3/delta, sequence (P48169 whole entry): as the sequence (P48169 whole entry) above
# GABA-A receptor alpha-4/beta-3/delta, sequence (Q06278 whole entry, further chain): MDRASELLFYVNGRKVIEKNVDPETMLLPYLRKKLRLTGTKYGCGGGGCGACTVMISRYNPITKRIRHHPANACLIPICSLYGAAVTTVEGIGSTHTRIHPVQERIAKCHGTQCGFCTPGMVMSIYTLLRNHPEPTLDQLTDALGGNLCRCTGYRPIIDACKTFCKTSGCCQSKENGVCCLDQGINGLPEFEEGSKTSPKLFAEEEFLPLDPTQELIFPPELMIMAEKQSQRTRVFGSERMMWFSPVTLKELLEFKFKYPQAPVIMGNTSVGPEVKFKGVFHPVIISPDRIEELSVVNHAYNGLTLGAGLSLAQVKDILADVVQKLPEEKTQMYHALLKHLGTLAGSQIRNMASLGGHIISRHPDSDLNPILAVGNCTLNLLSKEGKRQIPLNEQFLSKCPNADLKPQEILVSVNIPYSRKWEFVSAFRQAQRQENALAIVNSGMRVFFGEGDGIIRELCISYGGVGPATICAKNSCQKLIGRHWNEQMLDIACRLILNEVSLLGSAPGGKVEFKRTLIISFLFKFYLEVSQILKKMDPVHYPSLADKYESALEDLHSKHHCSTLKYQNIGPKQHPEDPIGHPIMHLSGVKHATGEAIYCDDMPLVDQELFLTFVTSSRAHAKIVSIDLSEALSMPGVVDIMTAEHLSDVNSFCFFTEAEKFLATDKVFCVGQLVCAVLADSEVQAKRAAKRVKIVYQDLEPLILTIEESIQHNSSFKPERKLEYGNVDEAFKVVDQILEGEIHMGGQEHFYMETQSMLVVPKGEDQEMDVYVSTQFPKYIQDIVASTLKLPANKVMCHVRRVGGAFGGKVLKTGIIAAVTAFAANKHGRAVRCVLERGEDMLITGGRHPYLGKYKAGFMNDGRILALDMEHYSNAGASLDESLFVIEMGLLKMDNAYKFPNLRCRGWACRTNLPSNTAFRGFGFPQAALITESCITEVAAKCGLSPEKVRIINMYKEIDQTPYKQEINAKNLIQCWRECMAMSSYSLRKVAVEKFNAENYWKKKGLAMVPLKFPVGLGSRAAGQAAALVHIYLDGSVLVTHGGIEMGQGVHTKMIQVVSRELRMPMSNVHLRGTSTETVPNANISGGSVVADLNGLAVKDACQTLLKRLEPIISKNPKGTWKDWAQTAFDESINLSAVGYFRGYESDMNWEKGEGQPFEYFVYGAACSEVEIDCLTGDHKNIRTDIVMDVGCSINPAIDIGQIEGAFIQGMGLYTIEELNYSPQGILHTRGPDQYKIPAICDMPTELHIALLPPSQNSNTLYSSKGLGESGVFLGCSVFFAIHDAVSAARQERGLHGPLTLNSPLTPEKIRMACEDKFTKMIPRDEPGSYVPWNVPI
SMILES,Emax [1],EC50 [2],EC50 [3],IC50 [4],CLhep predicted at 10 µM [5],bioavailability [6],CLhep predicted at 10 µM [7],bioavailability [8],Kp at 0.5 h [9],Emax [10],clearance [11],"solubility thermodynamic at 1 h, 10 µM [12]",logD at 20 µM [13],clearance [14],CLhep predicted at 10 µM [15],Kp at 0.5 h [16]
C[C@@]1(O)CC[C@H]2[C@H](CC[C@@H]3[C@@H]2CC[C@]2(C)[C@@H](C(=O)Cn4cc(Cl)cn4)CC[C@@H]32)C1,642%,1500 nM,744 nM,13 nM,,,,,,,,,,,,
C[C@@]1(O)CC[C@H]2[C@H](CC[C@@H]3[C@@H]2CC[C@]2(C)[C@@H](C(=O)Cn4cc([N+](=O)[O-])cn4)CC[C@@H]32)C1,440%,1160 nM,,18 nM,,,,,,,,,,,,
C[C@@]1(O)CC[C@H]2[C@H](CC[C@@H]3[C@@H]2CC[C@]2(C)[C@@H](C(=O)Cn4cc(C#N)nn4)CC[C@@H]32)C1,,,,251 nM,,,,,,,,,,,,
Cc1cnnn1CC(=O)[C@H]1CC[C@H]2[C@@H]3CC[C@@H]4C[C@](C)(O)CC[C@@H]4[C@H]3CC[C@]12C,1120%,1600 nM,2010 nM,> 3000 nM,,,,,,,,,,,,
C[C@@]1(O)CC[C@H]2[C@H](CC[C@@H]3[C@@H]2CC[C@]2(C)[C@@H](C(=O)Cn4cc(C(=O)O)cn4)CC[C@@H]32)C1,,,,> 3000 nM,,,,,,,,,,,,
Cc1cnn(CC(=O)[C@H]2CC[C@H]3[C@@H]4CC[C@@H]5C[C@](C)(O)CC[C@@H]5[C@H]4CC[C@]23C)c1,427%,291 nM,1360 nM,49 nM,85 mL/min/kg,6%,8.33 mL/min/kg,9.5%,2,841%,60 mL/min/kg,7 µM,5,63.3 mL/min/kg,50 mL/min/kg,
C[C@@]1(O)CC[C@H]2[C@H](CC[C@@H]3[C@@H]2CC[C@]2(C)[C@@H](C(=O)Cn4cc(C(F)(F)F)cn4)CC[C@@H]32)C1,339%,1050 nM,1600 nM,8 nM,,,,,,,,,,,,
C[C@@]1(O)CC[C@H]2[C@H](CC[C@@H]3[C@@H]2CC[C@]2(C)[C@@H](C(=O)Cn4ncc(C#N)n4)CC[C@@H]32)C1,> 154%,> 3000 nM,,78 nM,,,,,,,,,,,,
C[C@@]1(O)CC[C@H]2[C@H](CC[C@@H]3[C@@H]2CC[C@]2(C)[C@@H](C(=O)Cn4nccn4)CC[C@@H]32)C1,663%,125 nM,240 nM,11 nM,66.7 mL/min/kg,17%,3.33 mL/min/kg,25%,1.8,579%,43.3 mL/min/kg,7.3 µM,,,45 mL/min/kg,1
Cc1cnn(CC(=O)[C@H]2CC[C@H]3[C@@H]4CC[C@@H]5C[C@](C)(O)CC[C@@H]5[C@H]4CC[C@]23C)n1,532%,1640 nM,192 nM,21 nM,81.7 mL/min/kg,39%,5 mL/min/kg,6%,,614%,61.7 mL/min/kg,7 µM,,50 mL/min/kg,53.3 mL/min/kg,1
CC(=O)[C@H]1CC[C@H]2[C@@H]3CC[C@H]4C[C@H](O)CC[C@]4(C)[C@H]3CC[C@]12C [BREXANOLONE],510%,237 nM,75.5 nM,22 nM,66.7 mL/min/kg,,,2%,1.8,430%,200 mL/min/kg,3.3 µM,,,55 mL/min/kg,1.9
C[C@@]1(O)CC[C@H]2[C@H](CC[C@@H]3[C@@H]2CC[C@]2(C)[C@@H](C(=O)Cn4cc(C(N)=O)cn4)CC[C@@H]32)C1,> 357%,> 3000 nM,,64 nM,,,,,,,,,,,,
COC[C@@]1(O)CC[C@H]2[C@H](CC[C@@H]3[C@@H]2CC[C@]2(C)[C@@H](C(=O)Cn4cc(C#N)cn4)CC[C@@H]32)C1,> 1130%,> 3000 nM,577 nM,16 nM,,,,,,610%,,,,,,
Cc1ccn(CC(=O)[C@H]2CC[C@H]3[C@@H]4CC[C@@H]5C[C@](C)(O)CC[C@@H]5[C@H]4CC[C@]23C)n1,> 695%,> 3650 nM,,45 nM,,,,,,,,,,,,
C[C@@]1(O)CC[C@H]2[C@H](CC[C@@H]3[C@@H]2CC[C@]2(C)[C@@H](C(=O)Cn4cccn4)CC[C@@H]32)C1,474%,979 nM,1240 nM,30 nM,81.7 mL/min/kg,5%,5 mL/min/kg,19%,1.1,583%,75 mL/min/kg,8 µM,4.6,28.3 mL/min/kg,41.7 mL/min/kg,
CC[C@@]1(O)CC[C@H]2[C@H](CC[C@@H]3[C@@H]2CC[C@]2(C)[C@@H](C(=O)Cn4cc(C#N)cn4)CC[C@@H]32)C1,> 297%,> 3000 nM,,36 nM,,,,,,,,,,,,
Cc1cn(CC(=O)[C@H]2CC[C@H]3[C@@H]4CC[C@@H]5C[C@](C)(O)CC[C@@H]5[C@H]4CC[C@]23C)nn1,> 530%,> 3000 nM,,17 nM,,,,,,,,,,,,
Cc1ccnn1CC(=O)[C@H]1CC[C@H]2[C@@H]3CC[C@@H]4C[C@](C)(O)CC[C@@H]4[C@H]3CC[C@]12C,> 469%,> 10000 nM,,80 nM,,,,,,,,,,,,
COc1cnn(CC(=O)[C@H]2CC[C@H]3[C@@H]4CC[C@@H]5C[C@](C)(O)CC[C@@H]5[C@H]4CC[C@]23C)c1,434%,1760 nM,2050 nM,28 nM,,,,,,750%,,,,,,
